Laboratory results: patent US9422308B2, “Derivatives of docosahexaenoylethanolamide and uses thereof” (The United States of America, as represented by the …, priority 2012, dated 2016)

Columns and labels:
[1] = tested on: fatty acid amide hydrolase (FAAH); assay: incubation with WT or FAAH KO brain homogenates (susceptibility to FAAH hydrolysis); assay type: in vitro ADME, mouse; settings: for susceptibility to hydrolysis by FAAH: WT or FAAH KO brain homogenates
Protocol: Wildtype (WT) or FAAH knock out (KO) brain homogenates were incubated with either A8 or synaptamide.
Incubation of synaptamide and A8 with brain homogenates: Make 5× pH 9 assay buffer (625 mM Tris, 5 mM EDTA). Collect fresh brains of C57 mice into cold 1× pH 9 assay buffer. Homogenize entire brain (including cerebellum) in 2 mL of cold buffer using a conical Potter-Evehjem type tissue homogenizer driven by a motor. Perform incubations in washed and silanized 10 mL glass test tubes at 37° C. for 1 hour. Add 10 pmoles each of A8 and d4-synaptamide (5 uL of a 2 pmol/uL mixture of A8 and d4-synaptamide in DMSO). See Kim et al., Prostaglandins & Other Lipid Mediators, 96(1-4):114-120 (2011) for the structure of d4-synaptamide (d4-DEA). Add 500 μL of brain homogenate per incubation tube. Vortex gently. Incubate at 37° C. in a water bath, shaking at 42 rpm for 1 hour. Stop reaction by adding 1 mL chloroform, 1 mL methanol, 1 mL methanol/BHT (50 mg/L BHT) and 300 μL water. Vortex to mix, store under an inert gas at −80° C. until. Ready to extract via the method of Bligh and Dyer, Canadian J. Biochem. 37: 911-917, 1959.
Extraction procedure: Incubations are already in the 1st Bligh-Dyer ration (0.8:1:2 aqueous:CHCl3:MeOH). Work on wet ice. Add 10 pmoles of d4-anandamide which will be used as an internal standard to give relative quantification of the unhydrolyzed d4-synaptamide and A8. Add 1 mL water and 1 mL CHCl3 to each tube, purge with nitrogen, vortex vigorously 1 minute. Centrifuge 5 minutes at 4° C.; 3,000 rpm (Sorvall RTH 750 rotor) to separate phases. Extract the organic phase (bottom layer) to a clean silanized 10 mL test tube using glass Pasteur pipette. Avoid getting any aqueous phase in extract. Add 2 mL CHCl3 to the aqueous phase, purge with nitrogen and vortex 1 minute. […] Cap vials under argon and store at −80° C. until ready to analyze via HPLC-MS.
Ten pmoles each of A8 and d4-synaptamide were incubated with WT or FAAH KO brain homogenates or buffer (B, […]). Relative quantitation was performed via SRM mass spectrometry.

FAAH KO mice = assay: beam walk test after traumatic brain injury by controlled cortical impact; assay type: in vivo; settings: one-time i.p. 25 mg/kg at 15 min after TBI (CCI), from the day 4 after TBI, FIG. 8
Protocol: For the beam walk test, mice were trained to traverse a narrow beam before injury caused by controlled cortical impact (CCI), and the number of hind foot slips after injury was observed over the course of recovery.
A8 has increased resistance to FAAH in comparison to synaptamide but still does show some susceptibility to hydrolysis by FAAH. The effects of A8 in FAAH KO mice were tested by one-time i.p. administration of A8 (25 mg/kg) at 15 min after traumatic brain injury (TBI) inflicted by controlled cortical impact (CCI).

CC/C=C\C/C=C\C/C=C\C/C=C\C/C=C\C/C=C\CCC(=O)NCC(C)(C)O [Compound 1, (4Z,7Z,10Z,13Z,16Z,19Z)—N-(2-hydroxy-2-methylpropyl)docosa-4,7,10,13,16,19-hexaenamide]
susceptibility to hydrolysis by FAAH ([1]; Example 3, FIG. 5): less susceptible to hydrolysis by FAAH than synaptamide | susceptibility to hydrolysis by FAAH ([1]; Example 4, 10 pmoles, pH 9, 37° C., 1 hour, FIG. 6, vs d4-synaptamide): less susceptible to hydrolysis by FAAH than the deuterated synaptamide | percent recovery of compound after incubation with brain homogenate ([1]; WT and FAAH KO brain homogenate, FIG. 5, compared with synaptamide): higher than synaptamide | TBI-induced behavioral deficit (beam walk test, hind foot slips) (FAAH KO mice): significant improvement
